Data on four molecules can be found in ChEMBL document CHEMBL5506053, “Explorations of Agonist Selectivity for the α9* nAChR with Novel Substituted Carbamoyl/Amido/Heteroaryl Dialkylpiperazinium Salts and Their Therapeutic Implications in Pain and Inflammation” (J Med Chem, 2024).

The term EC50 denotes the concentration at which the effect is half-maximal. High values mean lower potency in that assay, low ones higher potency in that assay. As usually defined, the IC50 is the concentration needed to halve the response being measured. Read a low IC50 as greater potency in that assay.

Data set [1] deals with Neuronal acetylcholine receptor; alpha9/alpha10 (Homo sapiens, UniProt Q9GZZ6+Q9UGM1). Put plainly: Agonist activity at alpha9alpha10 nAChR (unknown origin). Format: protein-complex assay.
Chain of Neuronal acetylcholine receptor; alpha9/alpha10 (Q9UGM1 whole entry): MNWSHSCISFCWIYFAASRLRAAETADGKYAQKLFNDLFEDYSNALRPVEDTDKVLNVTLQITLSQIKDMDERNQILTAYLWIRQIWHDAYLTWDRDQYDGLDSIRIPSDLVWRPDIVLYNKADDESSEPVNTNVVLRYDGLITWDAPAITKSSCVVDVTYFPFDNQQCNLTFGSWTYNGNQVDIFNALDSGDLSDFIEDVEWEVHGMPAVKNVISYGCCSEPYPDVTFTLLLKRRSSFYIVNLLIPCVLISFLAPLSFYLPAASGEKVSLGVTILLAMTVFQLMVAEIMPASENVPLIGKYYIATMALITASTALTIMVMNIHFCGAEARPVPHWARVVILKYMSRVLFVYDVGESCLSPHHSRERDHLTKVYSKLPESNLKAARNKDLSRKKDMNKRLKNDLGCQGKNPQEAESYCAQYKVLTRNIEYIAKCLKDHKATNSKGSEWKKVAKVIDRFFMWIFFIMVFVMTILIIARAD
Chain of Neuronal acetylcholine receptor; alpha9/alpha10 (Q9GZZ6 whole entry): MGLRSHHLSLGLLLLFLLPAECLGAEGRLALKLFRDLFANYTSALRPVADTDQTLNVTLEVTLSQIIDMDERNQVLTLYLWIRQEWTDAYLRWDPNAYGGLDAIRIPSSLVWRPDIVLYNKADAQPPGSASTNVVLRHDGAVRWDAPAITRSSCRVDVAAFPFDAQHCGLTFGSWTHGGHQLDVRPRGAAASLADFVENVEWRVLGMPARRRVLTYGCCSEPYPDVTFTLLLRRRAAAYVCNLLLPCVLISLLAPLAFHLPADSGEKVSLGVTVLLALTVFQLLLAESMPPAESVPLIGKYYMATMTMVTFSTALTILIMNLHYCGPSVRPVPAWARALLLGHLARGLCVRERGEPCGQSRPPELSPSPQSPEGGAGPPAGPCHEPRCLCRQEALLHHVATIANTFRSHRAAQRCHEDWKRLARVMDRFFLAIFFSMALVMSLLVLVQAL
The target of data set [2] is T1, Neuronal acetylcholine receptor subunit alpha-9 (Homo sapiens, UniProt Q9UGM1). In words: Agonist activity at alpha9 nAChR (unknown origin).
T1 sequence (Q9UGM1 whole entry): as the sequence (Q9UGM1 whole entry) above
Data set [3] is described as follows: cells. The note with it: Homo sapiens, THP-1.
Description: Inhibition of ATP-mediated IL-1beta release in LPS primed BzATP induced monocytic human THP-1 cells primed with LPS for 5 hrs followed by BzATP and compound addition for 40 mins by ELISA
Data set [4] concerns THP-1. In words: Induction of IL-1beta release in LPS primed monocytic human THP-1 cells at 10 uM primed with LPS for 5 hrs followed by compound addition and further incubated for 40 mins by ELISA. The data set is classed as functional, cell-based. A general note: An ELISA detects its analyte on a solid surface through an enzyme-linked reagent.
Data set [5] has as its system PBMC. Put plainly: Inhibition of ATP-mediated IL-1beta release in LPS primed BzATP induced human PBMC cells at 100 fM primed with LPS for 3 hrs followed by BzATP and compound addition for 30 mins by ELISA. Format: functional, cell-based.
Data set [6] concerns PBMC. Put plainly: Inhibition of ATP-mediated IL-1beta release in LPS primed BzATP induced human PBMC cells at 100 uM primed with LPS for 3 hrs followed by BzATP and compound addition for 30 mins by ELISA. The data set is classed as functional, cell-based.
The target of data set [7] is T2, Neuronal acetylcholine receptor subunit alpha-7 (Homo sapiens, UniProt P36544). Put plainly: Agonist activity at alpha7 nAChR (unknown origin).
T2 sequence (P36544 whole entry): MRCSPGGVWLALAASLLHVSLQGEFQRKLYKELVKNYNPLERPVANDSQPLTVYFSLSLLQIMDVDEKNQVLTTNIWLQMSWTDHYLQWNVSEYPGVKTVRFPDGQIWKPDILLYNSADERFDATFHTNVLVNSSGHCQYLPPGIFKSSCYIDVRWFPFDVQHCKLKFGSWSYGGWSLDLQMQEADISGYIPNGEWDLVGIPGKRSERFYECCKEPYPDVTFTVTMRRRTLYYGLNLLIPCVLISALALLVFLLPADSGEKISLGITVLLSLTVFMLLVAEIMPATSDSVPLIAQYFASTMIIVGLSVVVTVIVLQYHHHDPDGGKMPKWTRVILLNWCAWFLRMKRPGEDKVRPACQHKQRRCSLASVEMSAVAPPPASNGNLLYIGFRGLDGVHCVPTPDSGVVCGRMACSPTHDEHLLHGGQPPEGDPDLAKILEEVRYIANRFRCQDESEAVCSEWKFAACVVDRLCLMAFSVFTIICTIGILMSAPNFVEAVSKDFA
Data set [8] concerns THP-1. In words: Cytotoxicity against monocytic human THP-1 cells assessed as effect on lactate dehydrogenase activity in supernatant. The data set is classed as toxicity, cell-based.
For data set [9] the following is noted: human, caco-2, 2 h.
Description: Apparent permeability across apical to basolateral side in human Caco-2 cells at 5 ug/ml measured after 2 hrs by UPLC-MS/MS analysis
For data set [10], the target named is T2, Neuronal acetylcholine receptor subunit alpha-7. Put plainly: Agonist activity at human alpha7 nAChR expressed as xenopus laevis oocytes assessed as increase in receptor desensitization by measuring fold change in peak current response at 30 uM incubated for 120 secs presence of PNU-120596 by two-electrode voltage-clamp electrophysiology method relative to acetylcholine. Format: cell-based. The note with it: Oocyte, filed as agonist, time 120.0 sec. On the technique in general: Two-electrode voltage clamp is typically applied to oocytes expressing channels or transporters.

Data set [11] addresses Neuronal acetylcholine receptor; alpha9/alpha10 (Homo sapiens) (UniProt Q9UGM1+Q9GZZ6). In words: Agonist activity at human alpha9alpha10 nAChR expressed as xenopus laevis oocytes assessed as increase in receptor desensitization by measuring fold change in maximum response (Imax) measured after 120 secs by two-electrode voltage-clamp electrophysiology method relative to acetylcholine. The note with it: Oocyte, filed as agonist, time 120.0 sec. The data set is classed as cell-based.

Data set [12] deals with T1, Neuronal acetylcholine receptor subunit alpha-9. In words: Agonist activity at human alpha9 nAChR expressed as xenopus laevis oocytes assessed as increase in receptor desensitization by measuring fold change in maximum response (Imax) measured after 120 secs by two-electrode voltage-clamp electrophysiology method relative to acetylcholine. Format: cell-based. The note with it: Oocyte, filed as agonist, time 120.0 sec.

The nature of data set [13]: Selectivity ratio for agonist activity at alpha7 nAChR (unknown origin) to agonist activity at alpha9 nAChR (unknown origin).
Data set [14] has as its target T2, Neuronal acetylcholine receptor subunit alpha-7. Put plainly: Partial agonist activity at human alpha7 nAChR expressed as xenopus laevis oocytes assessed as increase in receptor desensitization by measuring fold change in maximum response (Imax) measured after 120 secs by two-electrode voltage-clamp electrophysiology method relative to acetylcholine. Format: cell-based. The note with it: Oocyte, filed as partial agonist, time 120.0 sec.

The nature of data set [15]: Metabolic stability in pooled BALB/c mouse plasma assessed as half life at 1 uM measured after 0 to 120 mins by UPLC-MS/MS analysis. Format: ADME, cell-free. To be noted: time 0-120 min.

Each structure is given as a SMILES string. Activity calls are given as the source filed them. The rule behind the calls is not given here.

In the case of `CC[N+]1(CC)CCN(c2ccc(C(=O)Nc3cccc(C)n3)cc2)CC1.[I-]`, the values for the half-maximal effective concentration (EC50) in [1], in [2] and in [7] were 0.98 µM, 0.66 µM and 6.4 µM, respectively. In [3], the IC50 came out at 14 µM. Further, the result in data set [4] was inactive. The inhibition result in data set [5] is “Active”. For the same molecule, the inhibition result in data set [6] is “inactive”. Further, the Activity entry in data set [8] is “Non-Toxic”.
For the molecule `CC(C)NCC(O)COc1cccc2ccccc12` (stereo not given) [PROPRANOLOL], the Papp in [9] is on record as 20 10^-6 cm/s.
As for `CC[N+]1(CC)CCN(c2ccc(C(N)=O)cc2)CC1`, the fold change (FC) in data set [10] worked out at 0.18; in data set [11] it was 1.19; in data set [12] it was 0.8; in [14], 0.34. The Selectivity ratio in data set [13] came to 66.
With `CCN(CC)CCOC(=O)c1ccc(N)cc1` [PROCAINE], in [15], the t1/2 is reported as under 5 min.
